Laboratory results reported in ChEMBL document CHEMBL4270488, “Antibacterial Compounds from Marine Bacteria, 2010-2015” (J Nat Prod, 2017).
In brackets after ≈: the same amount, converted by molar mass. Where a SMILES comes first, the peptide text is derived from it. Bridges are numbered along the chain shown (N, C = ends). [ ]: non-standard residue; d: D form. The star is where a group is joined. ξ: configuration not given here. NMeLeu(3ξ-Me) = CN[C@H](C(=O)O)C(C)C(C)C; d(cisHyp) = O=C(O)[C@H]1C[C@@H](O)CN1; Picolinoyl(3-OH) = O=C(c1ncccc1O)*; NMePhg = CN[C@H](C(=O)O)c1ccccc1; Sar = CNCC(=O)O

How the values were obtained:
Staphylococcus aureus [1] = assay: Antibacterial activity against methicillin-resistant Staphylococcus aureus ATCC 43300; assay type: functional
Staphylococcus aureus [2] = assay: Antibacterial activity against Staphylococcus aureus […]; assay type: functional
Staphylococcus aureus [3] = assay: Antibacterial activity against Staphylococcus aureus ATCC 25925 by broth microdilution method; assay type: functional
Bacillus subtilis [4] = assay: Antibacterial activity against Bacillus subtilis ATCC 63501 by broth microdilution method; assay type: functional
Staphylococcus aureus [5] = assay: Antibacterial activity against drug-resistant Staphylococcus aureus by broth microdilution method; assay type: functional
Pseudomonas aeruginosa [6] = assay: Antibacterial activity against Pseudomonas aeruginosa ATCC 25916 by broth microdilution method; assay type: functional
Escherichia coli [7] = assay: Antibacterial activity against Escherichia coli ATCC 25922 by broth microdilution method; assay type: functional
Escherichia coli [8] = assay: Antibacterial activity against drug-resistant Escherichia coli by broth microdilution method; assay type: functional
Staphylococcus aureus [9] = assay: Antibacterial activity against methicillin-resistant Staphylococcus aureus by CLSI method; assay type: functional
Enterococcus [10] = assay: Antibacterial activity against Enterococcus VRE-CUS by CLSI method; assay type: functional
Enterococcus [11] = assay: Antibacterial activity against Enterococcus VRE-WMC by CLSI method; assay type: functional
Moraxella catarrhalis [12] = assay: Antibacterial activity against Moraxella catarrhalis ATCC 25238 by CLSI method; assay type: functional
Clostridioides difficile = assay: Antibacterial activity against Clostridioides difficile BI/NAP1/O27 by agar dilution method; assay type: functional
Escherichia coli [13] = assay: Antibacterial activity against Escherichia coli by CLSI method; assay type: functional
Pseudomonas aeruginosa [14] = assay: Antibacterial activity against Pseudomonas aeruginosa ATCC 27853 by CLSI method; assay type: functional
Enterococcus faecalis [15] = assay: Antibacterial activity against Enterococcus faecalis ATCC 19433 by broth microdilution assay; assay type: functional
Haemophilus influenzae [16] = assay: Antibacterial activity against Haemophilus influenzae ATCC 49247 by broth microdilution assay; assay type: functional
Escherichia coli [17] = assay: Antibacterial activity against Escherichia coli D21f2tolC by broth microdilution assay; assay type: functional
[18] = Inhibition of Staphylococcus aureus RNA polymerase
[19] = Inhibition of Escherichia coli RNA polymerase
[20] = system: Mycobacterium tuberculosis; assay: Antibacterial activity against Mycobacterium tuberculosis H37Rv ATCC 27294 incubated […]; assay type: functional
Bacillus subtilis [21] = assay: Antibacterial activity against Bacillus subtilis ATCC […] incubated for 16 hrs; assay type: functional
Bacillus subtilis [22] = assay: Antibacterial activity against Bacillus subtilis CMCC63501; assay type: functional
Staphylococcus aureus [23] = assay: Antibacterial activity against methicillin-resistant Staphylococcus aureus; assay type: functional
Escherichia coli [24] = assay: Antibacterial activity against Escherichia coli; assay type: functional
Staphylococcus aureus [25] = assay: Antibacterial activity against community associated methicillin-resistant Staphylococcus aureus incubated for 18 to 20 hrs by microbroth dilution method; assay type: functional
Staphylococcus aureus [26] = assay: Antibacterial activity against hospital associated methicillin-resistant Staphylococcus aureus incubated for 18 to 20 hrs by microbroth dilution method; assay type: functional
Streptococcus pyogenes = assay: Antibacterial activity against Streptococcus pyogenes incubated for 18 to 20 hrs by microbroth dilution method; assay type: functional
Streptococcus agalactiae = assay: Antibacterial activity against Streptococcus agalactiae incubated for 18 to 20 hrs by microbroth dilution method; assay type: functional
Enterococcus faecalis [27] = assay: Antibacterial activity against Enterococcus faecalis incubated for 18 to 20 hrs by microbroth dilution method; assay type: functional
Moraxella catarrhalis [28] = assay: Antibacterial activity against Moraxella catarrhalis incubated for 18 to 20 hrs by microbroth dilution method; assay type: functional
Haemophilus influenzae [29] = assay: Antibacterial activity against Haemophilus influenzae incubated for 18 to 20 hrs by microbroth dilution method; assay type: functional
Bacillus subtilis [30] = assay: Antibacterial activity against Bacillus subtilis DSM 347 incubated for 5 hrs by resazurin dye reduction based assay; assay type: functional, organism-based; settings: DSM 347, 5 h
[31] = system: Staphylococcus epidermidis; assay: Antibacterial activity against Staphylococcus epidermidis DSM 20044 incubated for 5 hrs by resazurin dye reduction based assay; assay type: functional, organism-based; settings: DSM 20044, 5 h
Bacillus anthracis = assay: Antibacterial activity against Bacillus anthracis UM23C1-1 by microplate assay; assay type: functional
Staphylococcus aureus [32] = assay: Antibacterial activity against Staphylococcus aureus ATCC 13709 by microplate assay; assay type: functional
Enterococcus faecalis [33] = assay: Antibacterial activity against Enterococcus faecalis ATCC 29212 by microplate assay; assay type: functional
Streptococcus pneumoniae = assay: Antibacterial activity against Streptococcus pneumoniae ATCC 51916 by microplate assay; assay type: functional
Staphylococcus aureus [34] = assay: Antibacterial activity against methicillin-resistant Staphylococcus aureus infected in CD1 mouse assessed as mouse survival rate at 10 mg/kg; assay type: functional
Staphylococcus aureus [35] = assay: Antibacterial activity against methicillin-sensitive Staphylococcus aureus; assay type: functional
Moraxella catarrhalis [36] = assay: Antibacterial activity against Moraxella catarrhalis; assay type: functional
Enterococcus faecium [37] = assay: Antibacterial activity against Enterococcus faecium CCUG 37832 incubated for 18 hrs by WST1 assay; assay type: functional; settings: CCUG 37832, 18 h
Enterococcus faecium [38] = assay: Antibacterial activity against Enterococcus faecium CTC 492 incubated for 18 hrs by WST1 assay; assay type: functional; settings: CTC 492, 18 h

SMILES: CCCC1(O)CC(=O)c2c(Cc3cc(=O)cc(O)o3)cccc2O1 (stereo not given)
- MIC (Staphylococcus aureus [1]): 2 µg/mL (≈ 6.05 µM)
- MIC (Staphylococcus aureus [2]): 16 µg/mL (≈ 48.4 µM)

SMILES: C[C@@H]1C/C=C2\SC[C@@H](NC(=O)c3coc(n3)C[C@@H](O)C[C@H](O)/C=C/C=C/CNC2=O)C(=O)O1
- MIC (Staphylococcus aureus [3]): 8 to 16 µg/mL (≈ 16.8 to 33.5 µM)
- MIC (Bacillus subtilis [4]): 8 to 16 µg/mL (≈ 16.8 to 33.5 µM)
- MIC (Staphylococcus aureus [5]): 8 to 16 µg/mL (≈ 16.8 to 33.5 µM)
- MIC (Pseudomonas aeruginosa [6]): 32 µg/mL (≈ 67 µM)
- MIC (Escherichia coli [7]): 32 µg/mL (≈ 67 µM)
- MIC (Escherichia coli [8]): 32 µg/mL (≈ 67 µM)

SMILES: C=C(NC(=O)c1csc(-c2nc3c(cc2O)-c2nc(cs2)C(=O)N[C@@H]([C@@H](C)O)C(=O)N/C(=C/C)c2nc(cs2)C(=O)N[C@H]2C[C@H](O)C(=O)OCc4cccc5[nH]c(c(C)c45)C(=O)SC[C@H](NC(=O)c4csc2n4)c2nc-3cs2)n1)C(N)=O
- MIC (Staphylococcus aureus [9]): 0.03 to 0.25 µg/mL (≈ 0.0245 to 0.205 µM)
- MIC (Enterococcus [10]): 0.12 µg/mL (≈ 0.0982 µM)
- MIC (Enterococcus [11]): 0.12 µg/mL (≈ 0.0982 µM)
- MIC (Moraxella catarrhalis [12]): 0.5 µg/mL (≈ 0.409 µM)
- MIC (Clostridioides difficile): 0.01 µg/mL (≈ 0.00818 µM)
- MIC (Escherichia coli [13]): > 4 µg/mL
- MIC (Pseudomonas aeruginosa [14]): > 4 µg/mL

SMILES: CC[C@H](C)[C@H]1NC(=O)[C@@H](NC(=O)[C@H](C)[C@H](O)C(C)C)[C@@H](C)OC(=O)[C@H]2NC(=O)[C@@H](C(C)C)NC(=O)[C@@H](Cc3ccccc3)N(C)C(=O)[C@@H](NC1=O)c1ccc(cc1)O[C@H](C)[C@@](O)(CO)/C=C\C(=O)NCC(=O)O2
- MIC (Enterococcus faecalis [15]): 12 µg/mL (≈ 11.7 µM)
- MIC (Haemophilus influenzae [16]): 12 µg/mL (≈ 11.7 µM)
- MIC (Escherichia coli [17]): 0.2 µg/mL (≈ 0.196 µM)
- IC50 [18]: 0.2 to 4 µM
- IC50 [19]: 0.2 to 2 µM

SMILES: COC(=O)N[C@H]1[C@@H](C)O[C@@H](O[C@H]2C/C=C(\C)[C@@H]3C=C[C@@H]4[C@@H](O[C@H]5C[C@@H](O[C@H]6C[C@@H](O)[C@@H](O[C@@H]7C[C@@H](O)[C@@H](OC)[C@H](C)O7)[C@H](C)O6)[C@@H](O)[C@H](C)O5)[C@@H](C)C[C@H](C)[C@H]4[C@]3(C)C(=O)C3=C(O)[C@@]4(C[C@@H](C)C(CO)=C[C@H]4/C=C/2C)OC3=O)C[C@]1(C)[N+](=O)[O-]
- MIC [20]: 16 to 32 µg/mL (≈ 13.5 to 27 µM)
- MIC (Bacillus subtilis [21]): 1.5 to 12 µg/mL (≈ 1.26 to 10.1 µM)
- MIC (Bacillus subtilis [22]): 1.6 to 3.1 µg/mL (≈ 1.35 to 2.61 µM)

SMILES: C/C(=C\C(=O)OCCCCCCCC(=O)Nc1c2sscc-2[nH]c1=O)C[C@@H]1OC[C@H](C[C@@H]2O[C@H]2[C@@H](C)[C@H](C)O)[C@@H](O)[C@H]1O
- MIC (Staphylococcus aureus [23]): ≤ 0.03 µg/mL
- MIC (Escherichia coli [24]): 0.5 µg/mL (≈ 0.78 µM)

SMILES: CC(C)C[C@H]1NC(=O)[C@@H](NC(=O)c2ncccc2O)[C@@H](C)OC(=O)[C@H](c2ccccc2)N(C)C(=O)[C@H](C)NC(=O)[C@H](C(C)C(C)C)N(C)C(=O)CN(C)C(=O)[C@H]2C[C@@H](O)CN2C1=O (stereo partly drawn) [VIRIFOGRISEIN I] ({Picolinoyl(3-OH)}-T[dL][d(cisHyp)][Sar][NMeLeu(3ξ-Me)]A[NMePhg]; ester 1-C)
- MIC (Staphylococcus aureus [25]): 1 to 2 µg/mL (≈ 1.14 to 2.28 µM)
- MIC (Staphylococcus aureus [26]): 1 to 2 µg/mL (≈ 1.14 to 2.28 µM)
- MIC (Streptococcus pyogenes): 8 µg/mL (≈ 9.1 µM)
- MIC (Streptococcus agalactiae): 8 µg/mL (≈ 9.1 µM)
- MIC (Enterococcus faecalis [27]): 16 µg/mL (≈ 18.2 µM)
- MIC (Moraxella catarrhalis [28]): 1 µg/mL (≈ 1.14 µM)
- MIC (Haemophilus influenzae [29]): 16 µg/mL (≈ 18.2 µM)

SMILES: CCC(C)CCC[C@H](C(=O)OC)[C@@H](O)c1cccc2nc3c(C(=O)O)cccc3nc12 (stereo not given in full)
- IC50 (Bacillus subtilis [30]): 9.1 µg/mL (≈ 21.4 µM)
- IC50 [31]: 6.1 µg/mL (≈ 14.4 µM)

SMILES: CC1=CC[C@@H]2[C@H]3/C(O)=C/C(=O)[C@@H](C)C(=O)O[C@H](C)/C=C/C=C\[C@@H](C)[C@H]3C=C[C@H]2C1
- MIC (Bacillus anthracis): 0.03 µg/mL (≈ 0.0757 µM)
- MIC (Staphylococcus aureus [32]): 0.06 to 0.25 µg/mL (≈ 0.151 to 0.63 µM)
- MIC (Enterococcus faecalis [33]): 0.06 to 0.25 µg/mL (≈ 0.151 to 0.63 µM)
- MIC (Streptococcus pneumoniae): 0.06 to 0.25 µg/mL (≈ 0.151 to 0.63 µM)
- survival at 10 mg/kg (Staphylococcus aureus [34]): 90%
- MIC (Staphylococcus aureus [35]): ≤ 0.25 µg/mL
- MIC (Moraxella catarrhalis [36]): 4 µg/mL (≈ 10.1 µM)

SMILES: [O-][n+]1c2cccc(O)c2[n+]([O-])c2cccc(O)c21
- MIC (Enterococcus faecium [37]): 0.7 µg/mL (≈ 2.87 µM)
- MIC (Enterococcus faecium [38]): 0.35 µg/mL (≈ 1.43 µM)

SMILES: COC(=O)N[C@H]1[C@@H](C)O[C@@H](O[C@H]2C/C=C(\C)[C@@H]3C=C[C@@H]4[C@@H](O[C@H]5C[C@@H](O[C@H]6C[C@@H](O)[C@@H](O[C@@H]7C[C@@H](O)[C@@H](OC)[C@H](C)O7)[C@H](C)O6)[C@@H](O)[C@H](C)O5)[C@@H](C)C[C@H](C)[C@H]4[C@]3(C)C(=O)C3=C(O)[C@@]4(C[C@@H](C)C(CO)=C[C@H]4/C=C/2C)OC3=O)C[C@]1(C)N
- MIC [20]: 16 to 32 µg/mL (≈ 13.8 to 27.6 µM)
- MIC (Bacillus subtilis [21]): 1.5 to 12 µg/mL (≈ 1.3 to 10.4 µM)
